How the values were obtained:
[1] = MTT assay of cellular cytotoxicity; assay type: cell-based; conditions: Chinese hamster, CHO-CFTR-wt cells, read-out: TC50; for CC50 at 2 h: 2 h incubation; for CC50 at 24 h: 24 h incubation
Method: The cytotoxicity of (1E,6E)-1,7-Bis(3,5-di-tert-butyl-4-hydroxyphenyl)-1,6-heptadiene-3,5-dione (representative of the molecules disclosed in the present invention) was assessed by MTT assay [[3-(4,5-dimethylthiazol-2-yl)-2,5-diphenyl tetrazolium bromide, measuring cellular dehydrogenase activity on CHO-CFTR-wt cell lines. The test is based on the principle that water soluble tetrazolium yellow salt MTT (Sigma®) is converted on purple formazan by mitochondrial dehydrogenase. Cells were grown to confluency in 96-well plates. After incubation with the test compound for 2 or 24 hours, at 37° C., […] of MTT (5 mg/ml) was added. After 4 h of incubation, culture medium was removed and 100 μl of DMSO per well added to solubilise formazan crystals. Optical density (OD) was measured at 570 nm and subtracted to these measured at 630 nm. The amount of purple formazan produced by treated cells is compared with these of untreated control cells (vehicle), dose-response curves were derived using GraphPad Software.

[2] = molecular target: T1, F508del-CFTR chloride channel (Homo sapiens, UniProt P13569, DEL508-508); experiment: Radiolabelled iodide efflux, F508del-CFTR chloride channel activity in JME/CF15 cells; assay type: cell-based; conditions: 100 μM for 2 hours, stimulated with forskolin 10 μM plus genistein 30 μM
T1 construct: endogenous in cells; host or cells: JME/CF15 human nasal airway epithelial cells
T1 sequence (P13569 with tags, fused parts or gaps DEL508-508): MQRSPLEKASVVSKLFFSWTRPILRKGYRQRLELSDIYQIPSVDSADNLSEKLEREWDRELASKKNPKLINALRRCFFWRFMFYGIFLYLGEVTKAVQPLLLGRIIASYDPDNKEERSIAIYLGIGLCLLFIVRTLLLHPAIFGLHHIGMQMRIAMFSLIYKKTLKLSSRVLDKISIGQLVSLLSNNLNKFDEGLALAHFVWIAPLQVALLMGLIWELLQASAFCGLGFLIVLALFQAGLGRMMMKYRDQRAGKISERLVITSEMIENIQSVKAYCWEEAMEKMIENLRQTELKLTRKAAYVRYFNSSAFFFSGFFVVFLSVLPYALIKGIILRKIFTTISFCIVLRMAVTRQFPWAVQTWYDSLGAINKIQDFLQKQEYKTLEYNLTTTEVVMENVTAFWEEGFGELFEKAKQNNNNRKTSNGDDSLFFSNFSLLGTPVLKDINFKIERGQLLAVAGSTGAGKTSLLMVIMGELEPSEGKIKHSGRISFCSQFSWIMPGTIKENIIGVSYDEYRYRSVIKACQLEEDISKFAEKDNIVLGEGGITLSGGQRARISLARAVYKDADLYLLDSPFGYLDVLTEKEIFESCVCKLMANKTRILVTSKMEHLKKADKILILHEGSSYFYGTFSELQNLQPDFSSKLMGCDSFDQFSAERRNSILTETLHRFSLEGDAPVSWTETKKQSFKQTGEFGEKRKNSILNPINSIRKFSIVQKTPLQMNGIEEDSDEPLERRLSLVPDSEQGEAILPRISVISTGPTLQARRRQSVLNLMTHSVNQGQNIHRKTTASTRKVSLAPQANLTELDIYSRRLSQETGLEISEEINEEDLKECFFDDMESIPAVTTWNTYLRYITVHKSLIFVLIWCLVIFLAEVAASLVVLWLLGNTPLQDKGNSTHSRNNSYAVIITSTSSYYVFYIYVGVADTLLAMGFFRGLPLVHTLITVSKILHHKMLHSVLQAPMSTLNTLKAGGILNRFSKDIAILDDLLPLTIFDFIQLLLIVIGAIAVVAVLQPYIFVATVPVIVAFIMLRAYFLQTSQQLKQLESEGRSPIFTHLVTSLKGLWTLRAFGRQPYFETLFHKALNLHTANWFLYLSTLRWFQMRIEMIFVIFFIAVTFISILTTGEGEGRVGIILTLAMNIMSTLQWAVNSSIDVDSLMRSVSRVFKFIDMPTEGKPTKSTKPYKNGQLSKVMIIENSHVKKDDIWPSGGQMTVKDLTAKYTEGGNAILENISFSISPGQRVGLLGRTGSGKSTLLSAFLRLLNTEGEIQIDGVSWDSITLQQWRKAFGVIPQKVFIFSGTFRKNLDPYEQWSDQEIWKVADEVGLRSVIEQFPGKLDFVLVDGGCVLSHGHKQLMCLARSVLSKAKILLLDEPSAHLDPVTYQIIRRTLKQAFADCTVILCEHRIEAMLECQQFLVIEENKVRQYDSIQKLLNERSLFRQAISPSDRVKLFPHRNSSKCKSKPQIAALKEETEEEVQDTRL
Method: (§1) The human nasal airway epithelial cells JME/CF15 were cultured in 24-well plates to 90% confluence. (1E,6E)-1,7-Bis(3,5-di-tert-butyl-4-hydroxyphenyl)-1,6-heptadiene-3,5-dione was added at 100 μM for 2 hours, at 37° C., 5% CO2. After incubation, chloride channel activity was assayed by measuring the rate of radio labelled iodide (125 l) efflux using liquid handling robots. The compound was tested in quadruplicate. Cells were incubated in physiologic solution containing 1 μM Kl and 1 μCi Na 125 l/ml during 1 h at 37° C. Extra cellular 125 l was removed by 3 washes of cells, and the loss of intracellular 125 l is determined by removing the medium with physiological solution every minute for up to 9 min 6. A cocktail of forskolin (10 μM) plus genistein (30 μM) was added at the third minute to stimulate F508del-CFTR chloride channel activity. Statistics and curves were derived at using Graph Pad Software.

[3] = molecular target: T2, wt-CFTR channel (Homo sapiens, UniProt P13569); experiment: Iodide efflux, wild type CFTR chloride channel activity in CHO-CFTR-wt cells; assay type: cell-based; conditions: 100 μM acute (no incubation) in presence of Forskolin 1 μM
T2 construct: expressed in transfected cells; host or cells: CHO-CFTR-wt cells
T2 sequence (P13569 whole entry): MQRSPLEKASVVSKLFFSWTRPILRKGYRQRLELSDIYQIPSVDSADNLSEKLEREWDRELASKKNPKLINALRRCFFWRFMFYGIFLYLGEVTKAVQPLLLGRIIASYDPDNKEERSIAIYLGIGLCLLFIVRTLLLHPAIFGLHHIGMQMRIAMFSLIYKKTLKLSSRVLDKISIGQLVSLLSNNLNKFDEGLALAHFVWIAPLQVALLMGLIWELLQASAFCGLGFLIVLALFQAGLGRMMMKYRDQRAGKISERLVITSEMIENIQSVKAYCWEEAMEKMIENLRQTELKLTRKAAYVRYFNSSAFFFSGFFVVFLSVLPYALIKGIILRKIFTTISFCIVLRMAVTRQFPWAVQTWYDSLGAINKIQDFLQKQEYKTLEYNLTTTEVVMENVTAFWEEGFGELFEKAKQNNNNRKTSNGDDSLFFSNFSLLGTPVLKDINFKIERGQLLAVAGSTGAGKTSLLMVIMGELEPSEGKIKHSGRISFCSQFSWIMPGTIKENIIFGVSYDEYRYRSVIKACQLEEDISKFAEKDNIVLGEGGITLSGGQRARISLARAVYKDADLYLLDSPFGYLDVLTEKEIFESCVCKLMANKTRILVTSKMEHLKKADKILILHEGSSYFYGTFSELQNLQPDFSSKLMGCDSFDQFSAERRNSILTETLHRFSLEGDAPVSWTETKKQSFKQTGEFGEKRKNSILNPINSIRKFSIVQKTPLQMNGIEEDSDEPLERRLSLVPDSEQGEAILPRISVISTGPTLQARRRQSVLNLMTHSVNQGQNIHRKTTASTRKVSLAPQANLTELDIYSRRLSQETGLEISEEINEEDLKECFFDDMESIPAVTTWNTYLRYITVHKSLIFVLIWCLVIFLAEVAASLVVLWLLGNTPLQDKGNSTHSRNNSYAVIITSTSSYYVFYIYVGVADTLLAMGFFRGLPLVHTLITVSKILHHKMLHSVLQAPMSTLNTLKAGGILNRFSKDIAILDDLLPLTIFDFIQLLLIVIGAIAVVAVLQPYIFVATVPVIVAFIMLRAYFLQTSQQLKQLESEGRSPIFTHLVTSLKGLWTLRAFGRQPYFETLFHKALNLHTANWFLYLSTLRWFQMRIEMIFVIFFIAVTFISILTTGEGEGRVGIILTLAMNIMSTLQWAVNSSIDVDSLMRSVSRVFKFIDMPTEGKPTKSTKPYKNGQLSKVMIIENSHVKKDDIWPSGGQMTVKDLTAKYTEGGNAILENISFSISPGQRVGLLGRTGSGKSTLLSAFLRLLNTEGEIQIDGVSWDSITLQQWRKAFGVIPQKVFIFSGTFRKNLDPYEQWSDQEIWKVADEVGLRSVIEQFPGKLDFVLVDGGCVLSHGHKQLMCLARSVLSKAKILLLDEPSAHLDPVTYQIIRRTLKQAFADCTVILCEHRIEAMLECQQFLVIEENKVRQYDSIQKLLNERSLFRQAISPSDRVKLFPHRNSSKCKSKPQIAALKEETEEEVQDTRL
Method: as §1
To test the potency to stimulate wt-CFTR channel activity, CHO-CFTR-wt cells were cultured in 24-well plates to 90% confluence. Iodide efflux experiments were carried as described above. (1E,6E)-1,7-Bis(3,5-di-tert-butyl-4-hydroxyphenyl)-1,6-heptadiene-3,5-dione was added in the third minute in the presence or absence of Forskolin (1 μM). The compound was tested in acute (no incubation) at 100 μM in presence of Forskolin 1 μM. […]

[4] = test system: JME/CF15 cells; experiment: Intracellular calcium mobilization (Fluo-4, confocal microscopy) in JME/CF15 cells; assay type: cell-based, human; conditions: 100 μM during 2 h, absence of extra cellular calcium
Text: A number of epithelial chloride channels are calcium dependent. Therefore molecules which increase cytosolic calcium release or reduce calcium re-uptake by the intracellular stores may be beneficial to increase chloride secretion via a calcium-regulated chloride signaling pathway. Alternatively, a decrease in the activity calcium dependant proteins playing a vital role in retaining misfolded F508-CFTR in the ER may also seem a promising strategy in cystic fibrosis therapy.
JME/CF15 cells were loaded with 3 μM Fluo-4 acetoxymethyl (AM)ester for 20 min at room temperature in buffer solution containing: (in mM) 130 NaCl, 5.4 KCl, 2.5 CaCl2, 0.8 MgCl2, 5.6 glucose, 10 Hepes, pH 7.4 adjusted with Tris base), rinsed and allowed to equilibrate for 5-10 min. Ca2+ activity was recorded by confocal laser scanning microscopy using Bio-Rad MRC 1024 equipped with 15 mW Ar/Kr gas laser (Hemel Hempstead, UK). Maximal resolution was obtained with Olympus plan apo X60 oil, 1.4 NA, objective lens. Fluorescence signal collection was performed through the control software Lasersharp 3.2 (Bio-Rad). The resolution time was 30 s for the protocol in which cells are incubated 2 h in the presence of (1E,6E)-1,7-Bis(3,5-di-tert-butyl-4-hydroxyphenyl)-1,6-heptadiene-3,5-dione. All the experiments were performed at minimum on two different cell passages. […]

melting point | Structure (SMILES) | CC50 at 2 h [1] | CC50 at 24 h [1] | restoration of F508del-CFTR protein at the plasma membrane (iodide efflux) [2] | wild-type CFTR chloride channel activity [3] | intracellular mobilization of Ca2+ [4]
192 to 196 °C | CC(C)(C)c1cc(/C=C/C(=O)CC(=O)/C=C/c2cc(C(C)(C)C)c(O)c(C(C)(C)C)c2)cc(C(C)(C)C)c1O [(1E,6E)-1,7-Bis(3,5-di-tert-butyl-4-hydroxyphenyl)-1,6-heptadiene-3,5-dione] | > 100 µM | > 100 µM | able to restore the F508del-CFTR protein at the plasma membrane of CF cells | insignificant wild-type CFTR chloride channel activity | induced intracellular mobilization of Ca^2+
– | COc1cc(/C=C/C(=O)CC(=O)/C=C/c2ccc(O)c(OC)c2)ccc1O [Curcumin, (1E,6E)-1,7-Bis(4-hydroxy-3-methoxyphenyl)-1,6-heptadiene-3,5-dione, reference compound] | 50.1 ± 1.1 µM | 42.7 ± 1 µM | – | – | –
